Article PMC7955127, “Preclinical small molecule WEHI-7326 overcomes drug resistance and elicits response in patient-derived xenograft models of human treatment-refractory tumors” (Cell Death & Disease, 2021)

Columns and labels:
[1] = test system: H1437 (non-small cell lung carcinoma) xenograft; experiment: H1437 tumor xenograft in nude mice; assay type: in vivo, BALB/c nude mice; details: i.p. three times weekly
Description: Tumor cell lines LIM2537, U87MGΔ2–7EGFR or H1437 were collected by trypsinization, counted and injected at 5 × 10^6 cells/ site subcutaneously on both flanks of BALB/c nude mice. Treatment with vehicle control or WEHI-7326 at given dose was initiated after 5 days. Drug or vehicle (100 μl) was injected intraperitoneally three times weekly. Control group and treatment group consisted of 8 mice each. Tumors were measured twice weekly with calipers. Tumor volumes were estimated using the modified ellipsoid formula V = 1/2 (length × width^2). The experiments were terminated when tumors in the control group started ulcerating or exceeded 17 mm in length, in line with the LICR/DoS Animal Ethics Committee guidelines (11/05 A).

SW480 = experiment: Cell growth inhibition assay, SW480; assay type: cell-based, human
Description: (§1) Cells were plated at a density of between 500 to 5000 cells per well for adherent cell lines depending on doubling time, and 15,000 cells per well for lymphoblastic leukemia cell lines, in a 96-well plate in 200 μl of growth media. Plates were incubated overnight at 37 °C before adding the inhibitors. Inhibitors were serially diluted from the stock solutions in complete medium and added to the cells. Incubation in the presence of inhibitors was continued for 72 days. Cell viability was assessed by the AlamarBlue (Invitrogen) or CellTiterBlue/Glo (Promega) method according to manufacturer’s instructions. The curve fits and IC50 values were generated in PRISM (GraphPad, San Diego, CA).
a Chemical structures of the triazine-based anti-mitotics used in this study. b Dose-dependent antiproliferative activity of key derivatives and comparison with commonly used anti-mitotics in SW480 cell line: Data shown is cell viability (as measured by CellTiterGlo) after 72 h relative to untreated control cells. Shown is mean of 3 independent experiments performed in duplicate +/- SEM. c Dose-dependent cell cycle analysis of key derivatives of WEHI-7326 development in SW480 cell line. Data are presented as percentage of cells in G2/M or subG0 after 24 h incubation with titration of inhibitors as assessed by PI staining and flow cytometry. Mean average of 3 experiments +/- SEM. d Comparison of IC50 and EC50 values of triazine compounds and anti-mitotic drugs in SW480 cell line: inhibition of cellular proliferation and cell cycle arrest in G2/M. IC50 and EC50 values are the mean of 3 independent experiments run in duplicates +/- SEM (n.d. = not determined). e HepG2 cytotoxic assay: cell viability assay after 48 h, normalised to 0.4% DMSO (100% viability) and 2 μM bortezomib (0% viability). The data is the mean average of 2 experiments +/- SD.

322 T TNBC PDX = experiment: TNBC PDX model 322T; assay type: in vivo, NOD-SCID-IL2Rγc–/– mice
Description: Cohorts of about 30 female mice were seeded with thawed single cell suspensions of early passage human breast tumors (passage 2 or 3). Briefly, 150,000–250,000 cells were resuspended in 10 µl of transplantation buffer (50% fetal calf serum, 10% of a 0.04% trypan blue solution and 40% PBS) and growth-factor-reduced Matrigel [BD] at a ratio of 3:1, and injected into the cleared mammary fat pads of 3- or 4-week-old NOD-SCID-IL2Rγc–/– female mice. Mice were monitored for tumor development three times weekly and tumor size measured using digital Vernier calipers. Tumor volume was estimated by measuring the minimum and maximum tumor diameters using the formula: (minimum diameter)^2 x (maximum diameter)/2. Once tumors arose, mice were randomized into treatment arms. Treatment was initiated when the tumor volume reached 80–120 mm^3. Randomization and tumor measurements were managed using the Study Director software (v 3.0, studylog). Mice were sacrificed at the first measurement where tumor volume exceeded 600 mm^3, or if their health deteriorated for reasons other than disease progression or drug toxicity (censored event).
Mice were treated with either docetaxel (10 mg/kg; i.p.; once), cisplatin (4 mg/kg; i.p.; once) or WEHI-7326 (20 mg/kg; twice a week (Monday and Thursday); i.v.). Vehicle treated mice were administered with the vehicle for WEHI-7326. Docetaxel was resuspended at 2 mg/ml in PBS:Tween-80:ethanol = 90:5:5 (v/v/v). WEHI-7326 was resuspended at 2 mg/ml in saline.

H1437 = experiment: Cell growth inhibition assay, H1437; assay type: cell-based; details: Homo sapiens, NCI-H1437; H1437, non-small cell lung carcinoma; 72 h viability assay, CellTiterGlo; mean of 3 ± SEM; read-out: IC50 (inhibition of cellular proliferation)
Description: as §1, with “Incubation in the presence of inhibitors was continued for 72 days.” left out

U87MGΔ2–7 = experiment: Cell growth inhibition assay, U87MGΔ2–7; assay type: cell-based; details: Homo sapiens; U87MGΔ2–7, glioblastoma expressing activated EGFR; 72 h viability assay, CellTiterGlo; mean of 3 ± SEM; read-out: IC50 (inhibition of cellular proliferation)
Description: as §1, with “Incubation in the presence of inhibitors was continued for 72 days.” left out

[2] = Intravenous pharmacokinetics and tolerability in mice; assay type: in vivo, male Swiss Outbred mice
Description: Briefly, intravenous pharmacokinetics and systemic exposure of WEHI-7326 were assessed in non-fasted male Swiss Outbred mice. WEHI-7326 was administered via intravenous bolus injection (10 ml/kg dose volume) and blood samples were collected at 1, 2, 5, 15 and 30 min and 1, 2, 4, 7.5 and 24 h post-dose (n = 2 mice per time point). A maximum of two samples were obtained from each mouse, with samples being taken either via submandibular bleed (approximately 120 μl; conscious sampling) or terminal cardiac puncture (0.6 ml; while mice were anaesthetized using inhaled Isoflurane). Once collected, blood samples were centrifuged immediately, supernatant plasma was removed, and stored in −20 °C until analysis by LC-MS
Parameters were calculated with standard calculations: PlasmaCL=DoseIV/AUCIVVSS=AUMCIV/AUCIV*PlasmaCL
With plasma CL = plasma clearance, AUCIV = area under the plasma concentration vs. time profile, VSS = apparent volume of distribution at steady state, AUMCIV = area under the first moment of the plasma concentration versus time profile from time zero to infinity after IV administration.
a Measured physicochemical and solubility data for WEHI-7326. […] Microsomal-predicted EH values are included.

[3] = mouse, plasma, iv, male Swiss outbred mice, i.v. 15 mg/kg

Q: Which Tumor growth [1] does the source give for `COc1ccc(CNc2nc(NCc3ccc(CN)cc3)nc(NN3CC(=O)NC3=O)n2)cc1` [WEHI-7326] here?
A: effective in reducing tumor growth

Q: What about the IC50 (SW480; Homo sapiens, SW480, colon carcinoma, 72 h viability assay, CellTiterGlo, mean of 3 ± SEM, read-out: IC50 (inhibition of cellular proliferation)) of the same compound?
A: 39.5 ± 4.1 nM

Q: What about the “Potency relative to myoseverin B” value (SW480; SW480) of the same compound?
A: almost ten-fold

Q: What about the Concentration inhibiting proliferation (SW480; SW480 colon cancer cell line in vitro) of the same compound?
A: at or below micromolar concentration

Q: What about the “Adverse effects in treatment arm” value (322 T TNBC PDX; 322 T PDX mice, 20 mg/kg i.v. twice a week, n = 10) of the same compound?
A: 1 sick, 1 found dead

Q: And the Survival time (322 T TNBC PDX; 322 T PDX, docetaxel 10 mg/kg i.p. once, WEHI-7326 20 mg/kg i.v. biweekly)?
A: 18 days

Q: And the IC50 (H1437)?
A: 29.7 ± 10.8 nM

Q: What about the IC50 (U87MGΔ2–7) of the same compound?
A: 6.1 ± 1.6 nM

Q: And the Adverse reactions ([2]; Swiss outbred mice, i.v., up to a dose of 30 mg/kg)?
A: no adverse reactions or compound-related side effects

Q: And the clearance [2, 3]?
A: 53 mL/min/kg

Q: And the half-life [2, 3]?
A: 6.3 h

Q: What about the Vd ([2]; mouse, plasma, iv, male Swiss outbred mice, i.v. 15 mg/kg, read-out: Apparent volume of distribution) of the same compound?
A: 4.7 L/kg
